Data taken from PMC12086749, “Design, synthesis, and evaluation of peptide‐imidazo[1,2‐a]pyrazine bioconjugates as potential bivalent inhibitors of the VirB11 ATPase HP0525” (Journal of Peptide Science, 2021).

Target: VirB11 ATPase HP0525 (Helicobacter pylori, UniProt Q7BK04)
Experiment: in vitro ATPase colorimetric assay of HP0525
Type: biochemical
Conditions: for inhibition of HP0525 (in words): qualitative statement
Protocol: The HP0525 protein was produced in the E. coli strain BL21 Star (DE3) (Invitrogen) as described previously.[39] The protein concentration was estimated spectroscopically using a NanoDrop (Thermo Scientific) and a calculated extinction coefficient at 280 nm, based on the amino acid composition. The ATPase activity of HP0525 was measured, with and without a specific amount of compound present, using an in vitro ATPase colorimetric assay kit (Innova Biosciences). The assay was performed in 96‐well ELISA microplates (Greiner Bio‐One), using a multipipette/robot.
A volume of 49 μl of a substrate/buffer solution (200 mM tris(hydroxymethyl)aminomethane [TRIS], pH 7.5; 5 mM MgCl2; 250 μM ATP; and 10% DMSO) was added to each assigned well, followed by the addition of 1 μl of compound (at 0.5; 5 or 50 mM to achieve the final concentrations of 5; 50 and 500 μM in the reaction, respectively) in DMSO (or 1 μl DMSO to controls). The solutions were mixed carefully by pipetting. The reaction was started by the addition of 50 μl of 0.106 μM HP0525 to each well (except the negative control, see text below), and the reaction plate was directly transferred to 37°C for 30 min of incubation. The reaction was stopped by the addition of the gold mix according to the standard protocol of the kit. The absorbance at 620 nm was measured after 30 min at RT. For each compound, the percentage of absorbance relative to non‐inhibited HP0525 was calculated, after subtracting the absorbance value of the negative control. In the negative control, the protein was added after the gold mix, as described in the standard protocol of the kit, which when used as a blank corrects for all free Pi not produced by the enzyme during the 30 min incubation at 37°C. A known inhibitor of HP0525 (CHIR02)[26] was used as a control inhibitor. All measurements were made in duplicate.
Each compound was screened on three separate plates, and each plate was read twice, and a mean was calculated for each concentration. The data were normalized by subtracting the negative control (0% active) and relating it to the positive control (100% active). The software GraphPad Prism 5 was used to generate two dose–response curves (Log [inhibitor] vs. normalized response [standard and variable slope]), and the IC50 values were calculated from each.

Sequence of VirB11 ATPase HP0525 (Q7BK04 entry or part of it): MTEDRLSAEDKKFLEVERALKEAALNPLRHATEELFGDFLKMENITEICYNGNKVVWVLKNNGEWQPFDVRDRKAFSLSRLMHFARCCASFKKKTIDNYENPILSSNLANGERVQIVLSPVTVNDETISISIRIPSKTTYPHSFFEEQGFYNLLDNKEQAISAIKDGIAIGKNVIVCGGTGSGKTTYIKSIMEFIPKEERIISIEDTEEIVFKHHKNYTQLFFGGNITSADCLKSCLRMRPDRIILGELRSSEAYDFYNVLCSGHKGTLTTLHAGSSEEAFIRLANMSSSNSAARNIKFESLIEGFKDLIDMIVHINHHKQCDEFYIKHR

| SMILES | IC50 | inhibition of HP0525 (in words) |
| --- | --- | --- |
| C#CCOCCOC(=O)Nc1ccc(S(=O)(=O)Nc2nccn3cc(-c4ccc5ccccc5c4)nc23)cc1 [Compound 16] | 61 µM | improved inhibition |
| NCCOCCOC(=O)Nc1ccc(S(=O)(=O)Nc2nccn3cc(-c4ccc5ccccc5c4)nc23)cc1 [Compound 27] | 137 µM | poor inhibition |
| C=CCOCCOC(=O)Nc1ccc(S(=O)(=O)Nc2nccn3cc(-c4ccc5ccccc5c4)nc23)cc1 [Compound 15] | 46 µM | improved inhibition |
| O=C(CCN1C(=O)C=CC1=O)NCCOCCOC(=O)Nc1ccc(S(=O)(=O)Nc2nccn3cc(-c4ccc5ccccc5c4)nc23)cc1 [Compound 17] | 18 µM | improved inhibition |
